Here are results for one compound from PMC5342526, “Identification of Bisindolylmaleimide IX as a potential agent to treat drug-resistant BCR-ABL positive leukemia” (Oncotarget, 2016).

SMILES strings stand for the structures. Like-named read-outs stand apart in the source and are kept apart here.

The subject of one data set is γH2AX foci in MEFs. The data set can be described thus: γH2AX DNA damage foci, immunofluorescent staining. The data set is classed as cell-based, mouse. The conditions noted are these: 2.5 μM, 4 hrs. As for the experimental part: MEFs or HCT116 cells were cultured on cover slips while Baf3 cells were cultured on slides coated by 0.1mg/ml poly-L-lysine, washed with phosphate-buffered saline (PBS) twice, and then fixed in 4% paraformaldehyde (PFA), which were permeabilized with 0.1% Triton X in PBS for 30 minutes at room temperature. The primary antibodies were diluted in PBS with 1% BSA (1:200). The slides were blocked (1% BSA in PBS) for 60 minutes at room temperature, incubated with primary antibodies overnight at 4°C, and followed by secondary antibody incubation for 60 min at RT. The slides were then mounted and observed under confocal microscope (Leica, Germany). Antibodies against γH2AX were from Bethyl Corporation.

Data set [1] concerns HCT116 cells. The data set is described as follows: Wst-1 cell survival assay. As to conditions: HCT116, compared to other genotoxic drugs such as Itu.
Data set [2] relates to B-Raf in BCR-ABL positive BaF3 cells. The data set is described as follows: B-Raf phosphorylation, western blot. The data set is classed as cell-based, murine. As for the experimental part:
Activation and expression of Erk, Mek1, and Raf were determined by western blot. B. Inhibition of Erk decreased the cell survival rates in BaF3 cells expressing BCR-ABL compared to control cells. […] C. […] N=3. Right panel: Western blot results showing that B-Raf was knocked down in these cells.

The next data set relates to BCR-ABL BaF3 cells. As to conditions: BCR-ABL BaF3, 24 hrs, compared among bisindolylmaleimide derivatives.
In the next data set the test system is primary MEFs. The data set is described as follows: Wst-1 cell survival assay.
Data set [3] has as its system HCT116 cells. The data set can be described thus: Cell cycle analysis by FACS. The data set is classed as cell-based, human. The conditions noted are these: HCT116, 24 hrs. As for the experimental part:
Cells were seeded on 35-mm dishes and cultured for 24 hrs, reaching 60–70% confluency. The cells were treated with different concentrations of Bisindolylmaleimide IX for 24 or 48 hrs, harvested by trypsinization, resuspended in 200 μl PBS, and fixed in 100% ethanol overnight at 4°C. The fixed cells were pelleted by centrifugation, resuspended in 800 μl PBS containing ribonuclease A (100 μg/ml) and incubated for 30 min at 37°C. Then 10 μl propidium iodide (PI, 4 mg/ml PBS) were added to the samples, which were assessed on a FACSCalibur flow cytometer using Cell Quest software (BD Bioscience).

In a further data set the test system is K562 cells. The data set is described as follows: Wst-1 cell survival assay. As to conditions: for IC50: Homo sapiens, read-out: IC50, cell survival.
For data set [4], the system named is tumors derived from T315I BCR-ABL-expressing BaF3 cells. The data set can be described thus: Subcutaneous solid tumor model in nude mice. The format is in vivo, mouse. The conditions noted are these: 4 mg/kg. As for the experimental part: (§1) For solid tumor models, the mice were injected with 4 mg / kg of Bisindolylmaleimide IX or solvent. The length (L) and width (W) of the tumor were measured by a digital caliper and expressed as tumor volume (0.5 L×W^2, mm^3). The body weight and the lifespan of the mice with intravenous injection of BaF3 cells were monitored every day. For B-Raf knockdown, lentivirus-mediated expressing shRNA against B-Raf was used.

For data set [5], the system named is tumors derived from BCR-ABL-expressing BaF3 cells. The data set can be described thus: Subcutaneous solid tumor model in nude mice. The data set is classed as in vivo, mouse. As to conditions: 4 mg/kg. As for the experimental part: as §1
Data set [6] is described as follows: Precipitation in cell cultures. The data set is classed as physicochemical.
Another data set deals with p53 in primary MEFs. The data set can be described thus: p53 protein level by western blot (screen).
The subject of data set [7] is tumors derived from HCT116. The data set is described as follows: HCT116 carcinoma xenograft in nude mice. The conditions noted are these: 10 mg/kg for 7 days. The data set is classed as in vivo, mouse. The method, then:
Male BALB/cASlac-nude mice (4-week-old) were purchased from Shanghai Slac Laboratory Animal C. LTD. The mice were kept in the SPF mouse facility for 1 week before being inoculated with HCT116 cells. HCT116 cells were harvested by trypsinization, counted and resuspended in PBS at the concentration of 5×10^7/ml. We injected subcutaneously 3×10^6 cells to BALB/cASlac nude mice's back. After 2 weeks, the mice were divided into 3 groups (6 mice per group) and were treated with 5-Iodotubercidin (Itu), Bisindolylmaleimide IX or solvent (PBS). The mice were weighed and the size of tumor measured. The length (L) and width (W) of the tumor were measured with a digital caliper and expressed as tumor volume (0.5L×W^2, mm^3).

The next data set has as its system MEFs and HCT116 cells. The data set is described as follows: Activation of Atm and Chk2 (DNA damage response), western blot. The data set is classed as cell-based. As to conditions: 4 hrs, phosphorylation of Atm and Chk2.

Method for K562 cells: We then evaluated the cytotoxic effect of Bisindolylmaleimide IX in MEFs and HCT116 cells. Different doses of Bisindolylmaleimide IX were applied to the cell cultures and cell survival rates and IC50 were determined with Wst-1 assay.
To measure cell survival rates after Bisindolylmaleimide IX treatment, cells were plated at 1×10^4 in 96 well plates and cultured for overnight, which were then treated with Bisindolylmaleimide IX for 48 hrs. Cell proliferation reagent WST-1 (Roche) was added to each well and was further incubated for 4 hrs at 37°C. The absorbance was measured against a control using microplate reader at 440 nm. The reference wavelength was 630 nm.
Method for p53 in primary MEFs: Cells were lysed in TNEN buffer (50 mM Tris, 150 mM NaCl, 5 mM EDTA, 0.5% NP-40, and 0.1% Triton X-100) supplemented with 1 mM NaF, Na2VO3, 1 mM PMSF, and 1 μg/ml of aprotonin, leupeptin, and pepstatin A. Protein concentrations were determined using a Bio-Rad assay. Proteins were resolved by SDS-PAGE and transferred to polyvinylidene difluoride membranes (Millipore).

On to `CS(=O)(=O)O.Cn1cc(C2=C(c3cn(CCCSC(=N)N)c4ccccc34)C(=O)NC2=O)c2ccccc21` [Bisindolylmaleimide IX, 3-[1-[3-(Amidinothio)propyl]-3-indolyl]-4-(1-methyl-3-indolyl)-1H-pyrrole-2,5-dione methanesulfonate], for which the γH2AX foci formation entry in the data set on γH2AX foci in MEFs is “numerous foci positive for γH2AX”. The “cytotoxicity (in words)” value in the data set on HCT116 cells [1] is “modest cytotoxicity”; in the data set with primary MEFs (MEFs, compared to other genotoxic drugs such as Itu), “modest cytotoxicity”; with K562 cells (K562, Wst-1), “highly sensitive”. Moreover, the “phosphorylation of B-Raf” value in [2] is “inhibited phosphorylation of B-Raf”. Further, the “cytotoxic effect (in words)” value with BCR-ABL BaF3 cells is given as “most potent one”. Besides, the IC50 in the data set with primary MEFs (Mus musculus, 24 h, read-out: IC50, cell survival) was 3.83 µM; in the data set on K562 cells (K562, 24 h) it was 3.72 µM; with K562 cells (K562, 48 h), 3.48 µM. For the same compound, the cell cycle profile result in the data set with HCT116 cells [3] was “increase in G2/M phase cells and a decrease in S phase cells”. In addition, the results for the growth of tumors entry in data set [4] and in data set [5] were “significantly inhibited growth of tumors” and “significantly inhibited growth of the tumors”, respectively. Moreover, in data set [6], the “concentrations at which the compound seemed to precipitate in cell cultures” value is reported as “greater than 10 μM”. For the same compound, in the data set with p53 in primary MEFs, the p53 protein up-regulation result is listed as “up-regulate p53 at the protein levels”. In addition, the “body weights of the mice” value in data set [7] is given as “not affected”. Moreover, the tumor size entry in [7] is “did not go down”. Also, the “lowest concentration able to activate the DNA damage response” value in the data set with MEFs and HCT116 cells worked out at 1.0 µM.
